According to patent US7125862B2, “Porphyrin-metal complexes and oxygen infusions containing the same” (Japan Science and Technology Agency, priority 2001, dated 2006):

Assay: Oxygen adsorption-desorption and oxygen affinity (P1/2) of the porphinatoiron(II) complex in toluene solution, by visible absorption spectrum
Format: binding
Description: 46.2 μg (0.03 μmol) of 2-8-(2-methyl-1-imidazolyl)octanoyloxymethyl-5,10,15,20-tetrakis(α,α,α,α-o-(1-methylcyclohexylamido)phenyl)porphinatoiron(III) complex-bromide synthesized in Example 7 was prepare into 10 ml of toluene anhydride solution and the atmosphere in the system was replaced with nitrogen. Then, the solution was mixed and stirred for 2 hours with an aqueous dithionous acid solution in a heterogeneous system to reduce the iron to the iron(II) state. Under nitrogen atmosphere, the toluene layer was extracted, dried over sodium sulfate anhydride and filtrated. The resulting toluene solution was transferred to and sealed in a measuring cell. Thus, a toluene solution of 2-8-(2-methyl-1-imidazolyl)octanoyloxymethyl-5,10,15,20-tetrakis(α,α,α,α-o-(1-methylcyclohexylamido)phenyl)porphinatoiron(II) complex was obtained. The visible absorption spectrum of this solution was λmax: 441, 539, 558 nm, and corresponded to that of a five-coordinated deoxy-type complex in which one imidazole was coordinated.
When oxygen gas was blown into this solution, the spectrum immediately changed to λmax: 424, 552 nm.
Consequently, the adsorption-desorption of oxygen could be continuously carried out by repeating the operation of blowing oxygen and then nitrogen.

**Q.** Which results are given for “2-8-(2-methyl-1-imidazolyl)octanoyloxymethyl-5,10,15,20-tetrakis(α,α,α,α-o-(1-methylcyclohexylamido)phenyl)porphinatoiron(II) complex [Example 11]”?
**A.** oxygen affinity (partial pressure of oxygen when 50% of the entire porphinatoiron is oxygenated (=P1/2)) (25° C.): 20 torr; reversibility of adsorption-desorption of oxygen (oxygen blown, then nitrogen gas for 1 minute, visible absorption spectrum): adsorption-desorption of oxygen occurred reversibly
